Source: the supplement of paper PMC10307832

Legend:
Assay in all cases: relative viability (nuclei count vs DMSO), 5 days (fraction); higher = more cells survive
[1] = compound: C=C(c1ccc(C(=O)O)cc1)c1cc2c(cc1C)C(C)(C)CCC2(C)C [Bexarotene] + O=C(CCCCCCC(=O)Nc1ccccc1)NO [Vorinostat] (partner 1 µM)
Procedure, shortened: (§1)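 Lung cancer cell lines in 1536-well plates were dosed by pin tool the day after seeding, either with one drug alone or with a fixed anchor-drug dose plus five library-drug doses (not always all listed) in √10 steps. After 5 days, cells were fixed and their nuclei stained in one step (final 0.05% Triton X-100, 1% formaldehyde, 1 ug/ml Hoechst), then counted on 4× images. Relative viability is the nuclei count in treated wells divided by that in vehicle wells. Values are medians of duplicate plates.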

[2] = compound: C=C(c1ccc(C(=O)O)cc1)c1cc2c(cc1C)C(C)(C)CCC2(C)C [Bexarotene] + Nc1nc2[nH]cc(CCc3ccc(C(=O)N[C@@H](CCC(=O)O)C(=O)O)cc3)c2c(=O)[nH]1 [Pemetrexed] (partner 0.2 µM)
Procedure, shortened: as §1

[3] = compound: C=C(c1ccc(C(=O)O)cc1)c1cc2c(cc1C)C(C)(C)CCC2(C)C [Bexarotene] + Cc1nc(Nc2ncc(C(=O)Nc3c(C)cccc3Cl)s2)cc(N2CCN(CCO)CC2)n1 [Dasatinib] (partner 0.075 µM)
Procedure, shortened: as §1

[4] = compound: C=C(c1ccc(C(=O)O)cc1)c1cc2c(cc1C)C(C)(C)CCC2(C)C [Bexarotene] + CC(=O)c1c(C)c2cnc(Nc3ccc(N4CCNCC4)cn3)nc2n(C2CCCC2)c1=O [Palbociclib] (partner 0.5 µM)
Procedure, shortened: as §1

| Cell Line | relative viability ([1]; first compound 0.08 µM) | relative viability ([1]; first compound 0.253 µM) | relative viability ([1]; first compound 0.8 µM) | relative viability ([1]; first compound 2.53 µM) | relative viability ([1]; first compound 8 µM) | relative viability ([2]; first compound 0.08 µM) | relative viability ([2]; first compound 0.253 µM) | relative viability ([2]; first compound 0.8 µM) | relative viability ([2]; first compound 2.53 µM) | relative viability ([2]; first compound 8 µM) | relative viability ([3]; first compound 0.08 µM) | relative viability ([3]; first compound 0.253 µM) | relative viability ([3]; first compound 0.8 µM) | relative viability ([3]; first compound 2.53 µM) | relative viability ([3]; first compound 8 µM) | relative viability ([4]; first compound 0.08 µM) | relative viability ([4]; first compound 0.253 µM) | relative viability ([4]; first compound 0.8 µM) | relative viability ([4]; first compound 2.53 µM) | relative viability ([4]; first compound 8 µM) |
| --- | --- | --- | --- | --- | --- | --- | --- | --- | --- | --- | --- | --- | --- | --- | --- | --- | --- | --- | --- | --- |
| NCI-H2087 | 1.07 | 0.765 | 0.642 | 1.09 | 0.841 | 0.681 | 0.743 | 0.696 | 0.652 | 0.549 | 1.02 | 0.919 | 0.703 | 0.843 | 0.903 | 0.254 | 0.238 | 0.198 | 0.274 | 0.226 |
| NCI-H2126 | 0.882 | 0.902 | 0.703 | 0.762 | 0.751 | 0.822 | 0.679 | 0.621 | 0.742 | 0.636 | 0.573 | 0.588 | 0.586 | 0.584 | 0.602 | 0.354 | 0.346 | 0.325 | 0.331 | 0.365 |
| NCI-H2170 | 0.746 | 0.913 | 0.753 | 0.699 | 0.687 | 0.265 | 0.272 | 0.254 | 0.258 | 0.27 | 0.615 | 0.466 | 0.522 | 0.476 | 0.584 | 0.343 | 0.403 | 0.324 | 0.325 | 0.331 |
| NCI-H2228 | 0.784 | 0.691 | 0.787 | 0.665 | 0.887 | 0.36 | 0.358 | 0.365 | 0.212 | 0.376 | 0.56 | 0.635 | 0.48 | 0.343 | 0.509 | 0.968 | 0.603 | 0.707 | 0.702 | 0.699 |
| NCI-H2342 | 0.758 | 0.647 | 0.666 | 0.571 | 0.731 | 0.827 | 0.739 | 0.747 | 0.825 | 0.797 | 0.331 | 0.301 | 0.256 | 0.33 | 0.419 | 0.522 | 0.556 | 0.525 | 0.54 | 0.608 |
| NCI-H2347 | 0.703 | 0.622 | 0.513 | 0.681 | 0.557 | 0.484 | 0.424 | 0.399 | 0.445 | 0.462 | 0.358 | 0.323 |  | 0.259 | 0.244 | 0.465 | 0.413 | 0.343 | 0.368 | 0.426 |
| NCI-H2405 | 1.06 | 1.01 | 0.839 | 0.755 | 0.951 | 1.25 | 1.09 | 0.939 | 0.977 | 1.07 | 0.219 | 0.247 | 0.136 | 0.144 | 0.188 | 0.541 | 0.557 | 0.44 | 0.565 | 0.508 |
| NCI-H3122 | 1.17 | 1 | 1.01 | 1.12 | 1.11 | 0.219 | 0.202 | 0.194 | 0.217 | 0.213 | 0.755 | 0.959 | 0.729 | 0.768 | 0.701 | 0.225 | 0.216 | 0.187 | 0.254 | 0.23 |
